{"source": "patent US12371428B2", "about": "(Exelixis, Inc., priority 2019, dated 2025)", "key": {"[1]": {"target": "Human MER (residues 528-999) (Homo sapiens (Human), UniProt Q12866)", "sequence (Q12866 528-999)": "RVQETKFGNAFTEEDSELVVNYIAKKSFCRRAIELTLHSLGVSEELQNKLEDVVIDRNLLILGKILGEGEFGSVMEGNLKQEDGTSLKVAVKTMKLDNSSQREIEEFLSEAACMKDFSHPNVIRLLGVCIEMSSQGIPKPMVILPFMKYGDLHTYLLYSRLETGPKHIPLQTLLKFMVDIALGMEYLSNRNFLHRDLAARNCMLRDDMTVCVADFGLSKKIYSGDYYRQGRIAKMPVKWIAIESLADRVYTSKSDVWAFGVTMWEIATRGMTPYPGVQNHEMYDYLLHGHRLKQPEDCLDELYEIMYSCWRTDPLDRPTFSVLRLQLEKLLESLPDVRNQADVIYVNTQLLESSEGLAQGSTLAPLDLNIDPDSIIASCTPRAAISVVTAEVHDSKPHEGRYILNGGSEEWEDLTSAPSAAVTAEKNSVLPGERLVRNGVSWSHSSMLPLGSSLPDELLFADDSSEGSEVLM", "test": "Human Mer kinase assay, HTRF KinEase (Example C-2)", "type": "biochemical", "settings": "protocol of Example C-2 (other compounds)", "summary_of_the_method": "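HTRF KinEase TK assay with MER 528-999 (1 ng/well) in enzymatic buffer plus 5 mM MgCl2 and 1 mM DTT, biotinylated peptide substrate and ATP at Km (40 μM), 3% DMSO final, 60 min at room temperature. Stopped with EDTA detection mix (SA-XL665, TK antibody-Eu3+), read at 665/620 nm after 60 min; IC50 from 10-point 4-parameter fit, normalized to DMSO and 1 μM reference.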"}, "[2]": {"target": "Human MET (residues 956-1390) (Homo sapiens (Human), UniProt P08581)", "sequence (P08581 956-1390)": "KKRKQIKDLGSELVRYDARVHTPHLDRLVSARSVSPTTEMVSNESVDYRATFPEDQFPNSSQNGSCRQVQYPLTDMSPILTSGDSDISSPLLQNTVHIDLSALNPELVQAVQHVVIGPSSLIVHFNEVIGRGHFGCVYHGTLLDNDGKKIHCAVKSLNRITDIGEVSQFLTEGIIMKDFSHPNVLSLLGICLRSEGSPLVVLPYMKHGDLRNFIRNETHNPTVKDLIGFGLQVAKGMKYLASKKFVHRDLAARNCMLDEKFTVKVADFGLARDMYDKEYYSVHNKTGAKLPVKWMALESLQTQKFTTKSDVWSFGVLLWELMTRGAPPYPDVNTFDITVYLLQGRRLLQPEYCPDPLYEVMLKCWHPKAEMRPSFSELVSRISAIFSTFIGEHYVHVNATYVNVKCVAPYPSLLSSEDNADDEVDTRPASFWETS", "test": "Human Met kinase assay, HTRF KinEase (Example D-2)", "type": "biochemical", "settings": "protocol of Example D-2 (other compounds); read-out: c-Met IC50", "summary_of_the_method": "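HTRF KinEase assay on MET residues 956-1390 (0.1 ng/well) in buffer with 5 mM MgCl2, 1 mM DTT and 1 mM MnCl2, with biotinylated peptide substrate, ATP at Km, 10 compound concentrations and 3% DMSO final, run 40 min at room temperature. The […] signal was normalized to DMSO and to 1 μM reference compound, and IC50 came from a 4-parameter logistic fit.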"}, "[3]": {"target": "Mer (phospho-Mer, MERTK-transfected 293A cells) (Homo sapiens (Human), UniProt Q12866)", "sequence (Q12866 21-999)": "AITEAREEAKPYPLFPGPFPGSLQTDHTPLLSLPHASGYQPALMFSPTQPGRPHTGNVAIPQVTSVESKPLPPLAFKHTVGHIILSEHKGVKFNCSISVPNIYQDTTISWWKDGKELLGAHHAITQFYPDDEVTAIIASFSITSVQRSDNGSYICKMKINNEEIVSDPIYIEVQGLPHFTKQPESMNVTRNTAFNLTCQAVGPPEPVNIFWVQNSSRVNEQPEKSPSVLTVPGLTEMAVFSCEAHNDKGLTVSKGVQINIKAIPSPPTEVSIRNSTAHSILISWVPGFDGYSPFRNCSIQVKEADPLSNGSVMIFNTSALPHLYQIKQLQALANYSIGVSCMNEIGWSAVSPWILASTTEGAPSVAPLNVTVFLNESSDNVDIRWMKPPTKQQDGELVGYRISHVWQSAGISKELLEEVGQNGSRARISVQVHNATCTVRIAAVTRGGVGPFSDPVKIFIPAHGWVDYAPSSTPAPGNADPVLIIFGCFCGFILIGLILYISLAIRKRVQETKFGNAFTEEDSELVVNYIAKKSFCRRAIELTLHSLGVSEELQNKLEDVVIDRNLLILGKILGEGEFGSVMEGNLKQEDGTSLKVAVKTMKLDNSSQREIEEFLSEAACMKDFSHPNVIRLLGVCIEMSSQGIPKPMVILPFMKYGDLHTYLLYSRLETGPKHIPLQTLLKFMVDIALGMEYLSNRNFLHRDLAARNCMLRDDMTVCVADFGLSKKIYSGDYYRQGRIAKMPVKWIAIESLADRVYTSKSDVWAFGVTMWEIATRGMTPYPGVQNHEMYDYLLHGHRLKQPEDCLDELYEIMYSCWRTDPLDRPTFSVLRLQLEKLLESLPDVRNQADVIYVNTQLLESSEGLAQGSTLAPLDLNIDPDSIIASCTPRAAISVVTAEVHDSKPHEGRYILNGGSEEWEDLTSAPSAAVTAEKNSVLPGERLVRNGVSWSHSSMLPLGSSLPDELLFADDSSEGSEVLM", "test": "Mer autophosphorylation ELISA in transient transfected 293A cells (Example H)", "type": "cell-based", "settings": "cellular activity; Mer autophosphorylation ELISA in transient transfected 293A cells", "summary_of_the_method": "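MERTK-transfected 293A; 8-pt dose, 1 h, serum-free, 0.3% DMSO. Cold lysis with orthovanadate and protease/phosphatase inhibitors. Phospho-Mer by DuoSet IC ELISA vs phospho-Mer standard. IC50: 4-PL fit; DMSO = 100%, reference inhibitor = 0%.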"}}}
{"smiles": "CNC(=O)c1cc2c(Oc3ccc(NC(=O)c4c5n(cc(-c6ccc(F)cc6)c4=O)CCC5)cc3F)ccnc2cc1OC", "note": "[Compound 408, 4-[2-fluoro-4-[[6-(4-fluorophenyl)-7-oxo-2,3-dihydro-1H-indolizine-8-carbonyl]amino]phenoxy]-7-methoxy-N-methylquinoline-6-carboxamide]", "values": [{"measurement": "IC50", "setting": "[1]", "value": "< 100", "unit": "nM"}, {"measurement": "IC50", "setting": "[2]", "value": "< 100", "unit": "nM"}, {"measurement": "IC50", "setting": "[3]", "value": "< 100", "unit": "nM"}]}
{"smiles": "COc1ccc2nccc(Oc3ccc(NC(=O)c4ccc(C)n(-c5ccc(F)cc5C)c4=O)cc3F)c2n1", "note": "[Compound 85, N-[3-Fluoro-4-[(6-methoxy-1,5-naphthyridin-4-yl)oxy]phenyl]-1-(4-fluoro-2-methylphenyl)-6-methyl-2-oxopyridine-3-carboxamide]", "values": [{"measurement": "IC50", "setting": "[1]", "value": "< 100", "unit": "nM"}, {"measurement": "IC50", "setting": "[2]", "value": "100 to 300", "unit": "nM"}, {"measurement": "IC50", "setting": "[3]", "value": "< 100", "unit": "nM"}]}
{"smiles": "Cc1cc(F)ccc1-c1c(C)nc(C)c(C(=O)Nc2ccc(Oc3ccnc4cc(C)c(F)nc34)c(F)c2)c1O", "note": "[Compound 428, N-[3-fluoro-4-[(6-fluoro-7-methyl-1,5-naphthyridin-4-yl)oxy]phenyl]-5-(4-fluoro-2-methylphenyl)-4-hydroxy-2,6-dimethylpyridine-3-carboxamide]", "values": [{"measurement": "IC50", "setting": "[1]", "value": "< 100", "unit": "nM"}, {"measurement": "IC50", "setting": "[2]", "value": "< 100", "unit": "nM"}, {"measurement": "IC50", "setting": "[3]", "value": "< 100", "unit": "nM"}]}
{"smiles": "COc1cc2nccc(Oc3ccc(NC(=O)c4cnc(C)c(-c5ccc(F)cc5C)c4O)cc3F)c2nc1OC", "note": "[Compound 69, N-[4-[(6,7-Dimethoxy-1,5-naphthyridin-4-yl)oxy]-3-fluorophenyl]-5-(4-fluoro-2-methylphenyl)-4-hydroxy-6-methylpyridine-3-carboxamide]", "values": [{"measurement": "IC50", "setting": "[1]", "value": "< 100", "unit": "nM"}, {"measurement": "IC50", "setting": "[2]", "value": "< 100", "unit": "nM"}, {"measurement": "IC50", "setting": "[3]", "value": "< 100", "unit": "nM"}]}
{"smiles": "COCCOc1cc2nccc(Oc3ccc(NC(=O)c4c(C)nc(C)c(-c5ccc(F)cc5)c4O)cc3F)c2nc1OC", "note": "[Compound 432, N-[3-fluoro-4-[[6-methoxy-7-(2-methoxyethoxy)-1,5-naphthyridin-4-yl]oxy]phenyl]-5-(4-fluorophenyl)-4-hydroxy-2,6-dimethylpyridine-3-carboxamide]", "values": [{"measurement": "IC50", "setting": "[1]", "value": "< 100", "unit": "nM"}, {"measurement": "IC50", "setting": "[2]", "value": "< 100", "unit": "nM"}, {"measurement": "IC50", "setting": "[3]", "value": "< 100", "unit": "nM"}]}
{"smiles": "COc1cc2nccc(Oc3ccc(NC(=O)c4cn(C)c(CO)c(-c5ccc(F)cc5)c4=O)cc3F)c2nc1OC", "note": "[Compound 72, N-[4-[(6,7-Dimethoxy-1,5-naphthyridin-4-yl)oxy]-3-fluorophenyl]-5-(4-fluorophenyl)-6-(hydroxymethyl)-1-methyl-4-oxopyridine-3-carboxamide]", "values": [{"measurement": "IC50", "setting": "[1]", "value": "< 100", "unit": "nM"}, {"measurement": "IC50", "setting": "[2]", "value": "< 100", "unit": "nM"}, {"measurement": "IC50", "setting": "[3]", "value": "< 100", "unit": "nM"}]}
{"smiles": "CCn1cc(C(=O)Nc2ccc(Oc3ccnc4cc(O)cnc34)c(F)c2)c(=O)c(-c2ccc(F)cc2)c1C", "note": "[Compound 410, 1-ethyl-N-[3-fluoro-4-[(7-hydroxy-1,5-naphthyridin-4-yl)oxy]phenyl]-5-(4-fluorophenyl)-6-methyl-4-oxopyridine-3-carboxamide]", "values": [{"measurement": "IC50", "setting": "[1]", "value": "< 100", "unit": "nM"}, {"measurement": "IC50", "setting": "[2]", "value": "< 100", "unit": "nM"}, {"measurement": "IC50", "setting": "[3]", "value": "100 to 300", "unit": "nM"}]}
{"smiles": "COc1cc2nccc(Oc3ccc(NC(=O)c4cnc(C)c(-c5ccc(F)cc5C)c4O)cc3)c2nc1OC(C)C", "note": "[Compound 414, 5-(4-fluoro-2-methylphenyl)-4-hydroxy-N-[4-[(7-methoxy-6-propan-2-yloxy-1,5-naphthyridin-4-yl)oxy]phenyl]-6-methylpyridine-3-carboxamide]", "values": [{"measurement": "IC50", "setting": "[1]", "value": "< 100", "unit": "nM"}, {"measurement": "IC50", "setting": "[2]", "value": "< 100", "unit": "nM"}, {"measurement": "IC50", "setting": "[3]", "value": "< 100", "unit": "nM"}]}
{"smiles": "COc1cc2nccc(Oc3ccc(NC(=O)c4cnc(C)c(-c5ccc(F)cc5C)c4O)cc3F)c2nc1OC(C)C", "note": "[Compound 416, N-[3-fluoro-4-[(7-methoxy-6-propan-2-yloxy-1,5-naphthyridin-4-yl)oxy]phenyl]-5-(4-fluoro-2-methylphenyl)-4-hydroxy-6-methylpyridine-3-carboxamide]", "values": [{"measurement": "IC50", "setting": "[1]", "value": "< 100", "unit": "nM"}, {"measurement": "IC50", "setting": "[2]", "value": "< 100", "unit": "nM"}, {"measurement": "IC50", "setting": "[3]", "value": "< 100", "unit": "nM"}]}
{"smiles": "COc1cc2nccc(Oc3ccc(NC(=O)c4cn(C5(C(F)(F)F)CC5)cc(-c5ccc(F)cc5)c4=O)cc3F)c2nc1OC", "note": "[Compound 59, N-[4-[(6,7-Dimethoxy-1,5-naphthyridin-4-yl)oxy]-3-fluorophenyl]-5-(4-fluorophenyl)-4-oxo-1-[1-(trifluoromethyl)cyclopropyl]pyridine-3-carboxamide]", "values": [{"measurement": "IC50", "setting": "[1]", "value": "< 100", "unit": "nM"}, {"measurement": "IC50", "setting": "[2]", "value": "< 100", "unit": "nM"}, {"measurement": "IC50", "setting": "[3]", "value": "< 100", "unit": "nM"}]}
{"smiles": "COc1cc2nccc(Oc3ccc(NC(=O)c4cn(C5CC5)c(C)c(-c5ccc(F)cc5)c4=O)cc3F)c2nc1OC", "note": "[Compound 433, 1-cyclopropyl-N-[4-[(6,7-dimethoxy-1,5-naphthyridin-4-yl)oxy]-3-fluorophenyl]-5-(4-fluorophenyl)-6-methyl-4-oxopyridine-3-carboxamide]", "values": [{"measurement": "IC50", "setting": "[1]", "value": "< 100", "unit": "nM"}, {"measurement": "IC50", "setting": "[2]", "value": "< 100", "unit": "nM"}, {"measurement": "IC50", "setting": "[3]", "value": "< 100", "unit": "nM"}]}
{"smiles": "COc1cc2nccc(Oc3ccc(NC(=O)c4cn(C(C)(C)C)cc(-c5ccc(F)cc5)c4=O)cc3F)c2nc1OC", "note": "[Compound 48, 1-tert-Butyl-N-[4-[(6,7-dimethoxy-1,5-naphthyridin-4-yl)oxy]-3-fluorophenyl]-5-(4-fluorophenyl)-4-oxopyridine-3-carboxamide]", "values": [{"measurement": "IC50", "setting": "[1]", "value": "< 100", "unit": "nM"}, {"measurement": "IC50", "setting": "[2]", "value": "< 100", "unit": "nM"}, {"measurement": "IC50", "setting": "[3]", "value": "< 100", "unit": "nM"}]}
{"smiles": "COc1cc2nccc(Oc3ccc(NC(=O)c4c(C)nc(O)c(-c5ccc(F)cc5)c4O)cc3F)c2nc1OC", "note": "[Compound 443, N-[4-[(6,7-dimethoxy-1,5-naphthyridin-4-yl)oxy]-3-fluorophenyl]-5-(4-fluorophenyl)-4,6-dihydroxy-2-methylpyridine-3-carboxamide]", "values": [{"measurement": "IC50", "setting": "[1]", "value": "< 100", "unit": "nM"}, {"measurement": "IC50", "setting": "[2]", "value": "< 100", "unit": "nM"}, {"measurement": "IC50", "setting": "[3]", "value": "< 100", "unit": "nM"}]}
{"smiles": "COc1cnc2c(Oc3ccc(NC(=O)c4c(C)ncc(-c5ccc(F)cc5)c4O)cc3F)ccnc2c1", "note": "[Compound 80, N-[3-Fluoro-4-[(7-methoxy-1,5-naphthyridin-4-yl)oxy]phenyl]-5-(4-fluorophenyl)-4-hydroxy-2-methylpyridine-3-carboxamide]", "values": [{"measurement": "IC50", "setting": "[1]", "value": "< 100", "unit": "nM"}, {"measurement": "IC50", "setting": "[2]", "value": "< 100", "unit": "nM"}, {"measurement": "IC50", "setting": "[3]", "value": "< 100", "unit": "nM"}]}
{"smiles": "CCc1cc2nccc(Oc3ccc(NC(=O)c4cnc(C)c(-c5ccc(F)cc5C)c4O)cc3F)c2nc1OC", "note": "[Compound 421, N-[4-[(7-ethyl-6-methoxy-1,5-naphthyridin-4-yl)oxy]-3-fluorophenyl]-5-(4-fluoro-2-methylphenyl)-4-hydroxy-6-methylpyridine-3-carboxamide]", "values": [{"measurement": "IC50", "setting": "[1]", "value": "< 100", "unit": "nM"}, {"measurement": "IC50", "setting": "[2]", "value": "100 to 300", "unit": "nM"}, {"measurement": "IC50", "setting": "[3]", "value": "< 100", "unit": "nM"}]}
{"smiles": "CCn1cc(-c2ccc(F)cc2)c(=O)c(C(=O)Nc2ccc(Oc3ccnc4cc(OC)c(OC)nc34)c(F)c2)c1C", "note": "[Compound 82, N-[4-[(6,7-Dimethoxy-1,5-naphthyridin-4-yl)oxy]-3-fluorophenyl]-1-ethyl-5-(4-fluorophenyl)-2-methyl-4-oxopyridine-3-carboxamide]", "values": [{"measurement": "IC50", "setting": "[1]", "value": "< 100", "unit": "nM"}, {"measurement": "IC50", "setting": "[2]", "value": "< 100", "unit": "nM"}, {"measurement": "IC50", "setting": "[3]", "value": "< 100", "unit": "nM"}]}
{"smiles": "COc1cc2nccc(Oc3ccc(NC(=O)c4c5n(cc(-c6ccc(F)cc6)c4=O)CCC5)cc3)c2nc1OC", "note": "[Compound 407, N-[4-[(6,7-dimethoxy-1,5-naphthyridin-4-yl)oxy]phenyl]-6-(4-fluorophenyl)-7-oxo-2,3-dihydro-1H-indolizine-8-carboxamide]", "values": [{"measurement": "IC50", "setting": "[1]", "value": "< 100", "unit": "nM"}, {"measurement": "IC50", "setting": "[2]", "value": "< 100", "unit": "nM"}, {"measurement": "IC50", "setting": "[3]", "value": "< 100", "unit": "nM"}]}
{"smiles": "COc1cc2nccc(Oc3ccc(NC(=O)c4nc(C)c(C)n(-c5ccc(F)cc5)c4=O)cc3F)c2nc1OC", "note": "[Compound 95, N-[4-[(6,7-Dimethoxy-1,5-naphthyridin-4-yl)oxy]-3-fluorophenyl]-4-(4-fluorophenyl)-5,6-dimethyl-3-oxopyrazine-2-carboxamide]", "values": [{"measurement": "IC50", "setting": "[1]", "value": "< 100", "unit": "nM"}, {"measurement": "IC50", "setting": "[2]", "value": "< 100", "unit": "nM"}, {"measurement": "IC50", "setting": "[3]", "value": "< 100", "unit": "nM"}]}
